Like-named read-outs stand apart in the source and are kept apart here.
Assays:
Format in all cases: cell-based
CAv1.2 = CAv1.2 (Homo sapiens, UniProt Q13936); experiment: FLIPR data, CAv1.2 channel blocking (Table 6); conditions: for CAv1.2 IC50 Ratio closed/inact.: ratio closed/inactivated IC50
Human Cav 2.2 channels = Human Cav 2.2 channels (Homo sapiens, UniProt Q00975); experiment: Fluorescent assay for CaV2.2 channels using potassium depolarization (VIPR/FLIPR); conditions: FLIPR data; for CAv2.2 IC50 Ratio closed/inact.: ratio closed/inactivated IC50
Outline: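 HEK293 cells stably expressing human Cav2.2 with α2δ and β subunits plus Kir2.3 were loaded with fluo-4 and incubated 30 min at 25 °C with compound in 4, 12, 25 or 30 mM potassium buffer. Channels were opened with 70 mM potassium (final) and calcium influx was read by fluorescence (Ex 480/Em 535 nm).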

T-type calcium channel [1] = molecular target: T-type calcium channel (Homo sapiens, UniProt O95180); experiment: T-type channel blocking, FLIPR data (Table 6); conditions: for CAv3.2 IC50 Ratio closed/inact.: CAv3.2, ratio closed/inactivated IC50
Text: (§1) Another method, high-throughput spectrophotometric assay, utilizes loading of the cell lines with a fluorescent dye sensitive to intracellular calcium concentration and subsequent examination of the effects of compounds on the ability of depolarization by potassium chloride or other means to alter intracellular calcium levels.

T-type calcium channel [2] = molecular target: T-type calcium channel (Homo sapiens, UniProt O43497); experiment: T-type channel blocking, FLIPR data (Table 6); conditions: CAv3.1
Text: as §1

[3] = closed state, read-out: CAv1.2 IC50 Closed
[4] = inactivated state, read-out: CAv1.2 IC50 Inact.
[5] = closed state, read-out: CAv2.2 IC50 Closed
[6] = inactivated state, read-out: CAv2.2 IC50 Inact.
[7] = CAv3.2, closed state, read-out: CAv3.2 IC50 Closed
[8] = CAv3.2, inactivated state, read-out: CAv3.2 IC50 Inact.

Chain of CAv1.2 (Q13936 whole entry): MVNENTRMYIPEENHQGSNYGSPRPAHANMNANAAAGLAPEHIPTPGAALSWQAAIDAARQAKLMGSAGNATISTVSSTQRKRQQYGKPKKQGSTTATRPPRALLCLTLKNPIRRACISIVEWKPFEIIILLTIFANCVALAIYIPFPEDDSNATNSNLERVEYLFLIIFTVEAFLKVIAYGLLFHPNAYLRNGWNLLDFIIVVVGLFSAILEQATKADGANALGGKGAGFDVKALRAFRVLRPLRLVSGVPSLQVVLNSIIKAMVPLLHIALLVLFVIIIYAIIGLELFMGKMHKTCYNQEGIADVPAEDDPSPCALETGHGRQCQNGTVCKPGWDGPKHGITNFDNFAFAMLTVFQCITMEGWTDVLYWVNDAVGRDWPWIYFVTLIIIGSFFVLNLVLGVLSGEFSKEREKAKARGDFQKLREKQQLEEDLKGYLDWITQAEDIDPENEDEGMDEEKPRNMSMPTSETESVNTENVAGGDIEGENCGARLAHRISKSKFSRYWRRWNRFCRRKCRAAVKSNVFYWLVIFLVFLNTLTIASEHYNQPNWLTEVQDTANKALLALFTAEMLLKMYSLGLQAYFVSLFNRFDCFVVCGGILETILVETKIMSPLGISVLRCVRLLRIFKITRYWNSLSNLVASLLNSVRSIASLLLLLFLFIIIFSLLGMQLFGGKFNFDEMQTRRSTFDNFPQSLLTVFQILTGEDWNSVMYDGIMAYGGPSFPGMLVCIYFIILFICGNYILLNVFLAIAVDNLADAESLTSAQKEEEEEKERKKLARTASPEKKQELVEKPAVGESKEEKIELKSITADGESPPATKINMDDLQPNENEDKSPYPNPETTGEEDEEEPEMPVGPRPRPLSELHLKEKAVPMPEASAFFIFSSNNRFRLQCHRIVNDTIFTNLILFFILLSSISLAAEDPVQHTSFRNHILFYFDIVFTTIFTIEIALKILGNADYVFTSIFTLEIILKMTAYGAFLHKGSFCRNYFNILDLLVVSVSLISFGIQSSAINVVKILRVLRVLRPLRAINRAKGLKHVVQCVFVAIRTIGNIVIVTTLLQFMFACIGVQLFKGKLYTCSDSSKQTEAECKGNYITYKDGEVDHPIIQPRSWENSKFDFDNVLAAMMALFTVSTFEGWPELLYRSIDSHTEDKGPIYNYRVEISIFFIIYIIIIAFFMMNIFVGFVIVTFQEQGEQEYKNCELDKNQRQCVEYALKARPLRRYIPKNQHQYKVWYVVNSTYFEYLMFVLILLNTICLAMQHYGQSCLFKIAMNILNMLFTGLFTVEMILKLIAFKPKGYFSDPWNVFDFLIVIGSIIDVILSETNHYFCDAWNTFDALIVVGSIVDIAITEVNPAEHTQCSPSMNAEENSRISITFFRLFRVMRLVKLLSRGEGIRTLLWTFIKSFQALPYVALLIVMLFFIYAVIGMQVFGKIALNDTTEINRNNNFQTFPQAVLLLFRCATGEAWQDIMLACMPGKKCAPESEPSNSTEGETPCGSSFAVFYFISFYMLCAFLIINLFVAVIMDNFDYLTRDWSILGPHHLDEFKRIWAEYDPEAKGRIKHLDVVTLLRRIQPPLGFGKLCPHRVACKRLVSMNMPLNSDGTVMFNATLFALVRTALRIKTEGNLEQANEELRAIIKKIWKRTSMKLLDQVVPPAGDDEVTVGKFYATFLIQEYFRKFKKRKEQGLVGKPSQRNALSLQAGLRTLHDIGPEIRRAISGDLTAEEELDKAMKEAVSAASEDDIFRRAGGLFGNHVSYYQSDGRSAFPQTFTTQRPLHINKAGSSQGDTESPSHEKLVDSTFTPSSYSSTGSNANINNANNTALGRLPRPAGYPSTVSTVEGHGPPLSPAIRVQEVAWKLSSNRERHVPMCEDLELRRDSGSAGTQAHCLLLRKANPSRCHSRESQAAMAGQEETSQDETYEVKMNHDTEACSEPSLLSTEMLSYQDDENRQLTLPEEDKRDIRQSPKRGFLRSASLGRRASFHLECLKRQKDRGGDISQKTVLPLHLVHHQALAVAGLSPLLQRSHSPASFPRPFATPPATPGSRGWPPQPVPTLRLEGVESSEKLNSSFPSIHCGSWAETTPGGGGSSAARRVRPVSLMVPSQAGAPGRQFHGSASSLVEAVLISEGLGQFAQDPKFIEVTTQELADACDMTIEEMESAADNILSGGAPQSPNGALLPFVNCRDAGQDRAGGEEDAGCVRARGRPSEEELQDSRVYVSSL
Chain of CAv1.2 (P54289 25-1103 partner): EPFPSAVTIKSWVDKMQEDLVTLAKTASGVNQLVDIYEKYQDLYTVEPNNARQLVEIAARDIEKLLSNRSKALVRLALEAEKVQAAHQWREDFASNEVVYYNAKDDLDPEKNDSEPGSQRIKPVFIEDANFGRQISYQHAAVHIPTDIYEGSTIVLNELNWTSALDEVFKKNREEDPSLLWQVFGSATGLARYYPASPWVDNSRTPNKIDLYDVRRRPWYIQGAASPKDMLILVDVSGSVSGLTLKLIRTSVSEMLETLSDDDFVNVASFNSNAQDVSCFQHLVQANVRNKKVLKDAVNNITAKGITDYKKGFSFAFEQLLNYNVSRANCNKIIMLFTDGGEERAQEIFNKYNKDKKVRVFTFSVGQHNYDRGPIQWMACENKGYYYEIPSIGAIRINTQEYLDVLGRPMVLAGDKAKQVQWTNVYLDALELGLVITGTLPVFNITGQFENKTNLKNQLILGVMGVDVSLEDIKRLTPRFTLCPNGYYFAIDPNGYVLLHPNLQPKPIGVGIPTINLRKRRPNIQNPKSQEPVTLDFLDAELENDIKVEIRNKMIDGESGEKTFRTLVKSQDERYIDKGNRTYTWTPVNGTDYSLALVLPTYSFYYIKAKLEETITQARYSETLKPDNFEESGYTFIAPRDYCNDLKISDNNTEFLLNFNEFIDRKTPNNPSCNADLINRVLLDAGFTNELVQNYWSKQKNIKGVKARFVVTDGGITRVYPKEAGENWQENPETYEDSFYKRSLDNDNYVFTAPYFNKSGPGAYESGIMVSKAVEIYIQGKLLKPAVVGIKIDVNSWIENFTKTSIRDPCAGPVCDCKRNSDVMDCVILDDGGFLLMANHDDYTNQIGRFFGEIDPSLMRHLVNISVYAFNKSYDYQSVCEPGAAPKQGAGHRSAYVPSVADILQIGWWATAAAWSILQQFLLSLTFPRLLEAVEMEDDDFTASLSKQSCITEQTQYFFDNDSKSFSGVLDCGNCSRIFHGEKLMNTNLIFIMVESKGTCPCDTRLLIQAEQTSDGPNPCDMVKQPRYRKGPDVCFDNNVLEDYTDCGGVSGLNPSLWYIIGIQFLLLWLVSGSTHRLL
Chain of CAv1.2 (Q08289 whole entry partner): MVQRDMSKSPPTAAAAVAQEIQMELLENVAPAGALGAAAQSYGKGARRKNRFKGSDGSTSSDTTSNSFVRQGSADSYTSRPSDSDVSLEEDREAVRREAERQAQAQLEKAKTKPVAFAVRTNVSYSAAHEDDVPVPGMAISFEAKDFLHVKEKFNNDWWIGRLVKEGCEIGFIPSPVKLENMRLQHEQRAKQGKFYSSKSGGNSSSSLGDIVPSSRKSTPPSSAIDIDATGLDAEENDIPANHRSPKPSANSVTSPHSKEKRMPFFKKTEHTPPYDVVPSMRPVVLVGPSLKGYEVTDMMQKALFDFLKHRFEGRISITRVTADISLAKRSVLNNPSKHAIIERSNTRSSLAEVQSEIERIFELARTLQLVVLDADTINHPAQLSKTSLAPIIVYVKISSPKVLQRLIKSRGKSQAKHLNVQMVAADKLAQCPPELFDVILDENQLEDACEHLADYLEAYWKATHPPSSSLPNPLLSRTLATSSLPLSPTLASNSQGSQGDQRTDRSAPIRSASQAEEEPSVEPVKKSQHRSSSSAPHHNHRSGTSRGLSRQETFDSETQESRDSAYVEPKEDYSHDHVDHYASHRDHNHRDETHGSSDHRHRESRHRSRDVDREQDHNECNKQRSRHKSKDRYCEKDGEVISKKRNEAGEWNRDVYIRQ

Row | Structure (SMILES) | IC50 (CAv1.2; [3]) | IC50 (CAv1.2; [4]) | CAv1.2 IC50 Ratio closed/inact. (CAv1.2) | IC50 (Human Cav 2.2 channels; [5]) | IC50 (Human Cav 2.2 channels; [6]) | CAv2.2 IC50 Ratio closed/inact. (Human Cav 2.2 channels) | IC50 (T-type calcium channel [1]; [7]) | IC50 (T-type calcium channel [1]; [8]) | CAv3.2 IC50 Ratio closed/inact. (T-type calcium channel [1]) | IC50 (T-type calcium channel [2])
1 | O=C(NC[C@H]1C[C@H](S(=O)(=O)c2cccc(OC(F)(F)F)c2)C1)c1ccc(C(F)(F)F)cc1 [Compound 694] | 7.51 µM | 2.22 µM | 3.4 | 2.11 µM | 0.3 µM | 7 | 2.47 µM | 1 µM | 2.5 | 3.08 µM
2 | CC(C)(C[C@H]1C[C@@H](NC(=O)c2ccc(C(F)(F)F)cn2)C1)S(=O)(=O)c1cccc(C(F)(F)F)c1 [Compound 735] | 6.37 µM | 3.71 µM | 1.7 | 0.69 µM | 0.07 µM | 9.9 | 4.55 µM | 1.46 µM | 3.1 | 3.51 µM
3 | O=C(NC[C@H]1C[C@H](S(=O)(=O)c2cc(F)cc(C(F)(F)F)c2)C1)c1ccc(OCC(F)(F)F)nc1 [Compound 706] | 7.98 µM | 3.09 µM | 2.6 | 3.95 µM | 0.85 µM | 4.6 | 4.02 µM | 0.74 µM | 5.4 | 2.87 µM
4 | CC(C)([C@H]1C[C@H](NC(=O)c2ccc(F)c(Cl)c2)C1)S(=O)(=O)c1cc(F)cc(C(F)(F)F)c1 [Compound 597] | 3.7 µM | 0.86 µM | 4.3 | 1.43 µM | 0.17 µM | 8.4 | 3.12 µM | 1.21 µM | 2.6 | 3.8 µM
5 | CC(C)([C@H]1C[C@H](NC(=O)c2ccc(C(F)(F)F)nc2)C1)S(=O)(=O)c1cccc(C(F)(F)F)c1 [Compound 675] | ≥ 10 µM | 5.99 µM | 1.7 | 8.63 µM | 0.49 µM | 17.6 | 7.76 µM | 6.23 µM | 1.2 | ≥ 10 µM
6 | CC(C)S(=O)(=O)c1cc(C(F)(F)F)cnc1C(=O)NC[C@H]1C[C@@H](C(C)(C)S(=O)(=O)c2cccc(C(F)(F)F)c2)C1 [Compound 681] | ≥ 10 µM | 2.62 µM | 3.8 | 9.89 µM | 0.16 µM | 61.8 | 5.93 µM |  |  | 4.82 µM
7 | O=C(NC[C@H]1C[C@H](S(=O)(=O)c2cccc(OC(F)(F)F)c2)C1)c1cnc(C(F)(F)F)nc1 [Compound 696] | ≥ 10 µM | 8.33 µM | 1.2 | 7.07 µM | 0.94 µM | 7.5 | 9.92 µM | 6.35 µM | 1.6 | ≥ 10 µM
8 | CC(C)([C@H]1C[C@@H](NC(=O)c2ccc(F)c(Cl)c2)C1)S(=O)(=O)c1cccc(OC(F)(F)F)c1 [Compound 641] | 4.11 µM | 0.69 µM | 6 | 1.67 µM | 0.25 µM | 6.7 | 0.29 µM | 0.53 µM | 0.5 | 0.77 µM
9 | CC(C)([C@H]1C[C@H](NS(=O)(=O)c2ccc(Cl)c(F)c2)C1)S(=O)(=O)c1cc(F)cc(C(F)(F)F)c1 [Compound 607] | 7.78 µM | 2.99 µM | 2.6 | 2.97 µM | 1.15 µM | 2.6 | ≥ 10 µM | 3.73 µM | 2.7 | 5.43 µM
10 | CC(C)([C@H]1C[C@@H](NC(=O)c2ccc(C(F)(F)F)nc2)C1)S(=O)(=O)c1cccc(C(F)(F)F)c1 [Compound 576] | ≥ 10 µM | 9.62 µM | 1 | 8.56 µM | 0.44 µM | 19.5 | ≥ 10 µM | 9.9 µM | 1 | ≥ 10 µM
11 | Cn1nc(C(F)(F)F)cc1C(=O)N[C@H]1C[C@@H](CC(C)(C)S(=O)(=O)c2cccc(C(F)(F)F)c2)C1 [Compound 738] | 5.36 µM | 2.34 µM | 2.3 | 1.27 µM | 0.12 µM | 10.6 | 2.25 µM | 0.52 µM | 4.3 | 5.75 µM
12 | CC(C)([C@H]1C[C@@H](NC(=O)c2ccc(C(F)(F)F)cc2)C1)S(=O)(=O)c1cccc(C(F)(F)F)c1 [Compound 581] | 3.87 µM | 1.48 µM | 2.6 | 2.43 µM | 0.13 µM | 18.7 | 3.07 µM | 0.66 µM | 4.7 | 4.84 µM
13 | CC(C)([C@H]1C[C@H](NS(=O)(=O)c2ccc(OC(F)(F)F)cc2)C1)S(=O)(=O)c1cccc(C(F)(F)F)c1 [Compound 669] | ≥ 10 µM | 3.33 µM | 3 | 7.9 µM | 0.96 µM | 8.2 | 2.65 µM | 2.55 µM | 1 | 2.74 µM
14 | CC(C)([C@H]1C[C@@H](NC(=O)c2ccc(Cl)cn2)C1)S(=O)(=O)c1cccc(C(F)(F)F)c1 [Compound 578] | 9.07 µM | 8.38 µM | 1.1 | 3.46 µM | 0.46 µM | 7.5 | 7.71 µM | 5.3 µM | 1.5 | ≥ 10 µM
15 | CC(C)([C@H]1C[C@H](NC(=O)c2ccnc(C(F)(F)F)n2)C1)S(=O)(=O)c1cc(F)cc(C(F)(F)F)c1 [Compound 595] | ≥ 10 µM | ≥ 10 µM |  | 3.63 µM | 0.21 µM | 17.3 | ≥ 10 µM | 9.83 µM | 1 | ≥ 10 µM
16 | CC(C)([C@H]1C[C@@H](NC(=O)c2cc(C(F)(F)F)n[nH]2)C1)S(=O)(=O)c1cc(F)cc(C(F)(F)F)c1 [Compound 587] | ≥ 10 µM | 4.85 µM | 2.1 | 5.55 µM | 0.72 µM | 7.7 | 6.56 µM | 3.6 µM | 1.8 | ≥ 10 µM

— US20120245137A1 (Zalicus Pharmaceuticals Ltd., priority 2009, published 2012)
